Where two headings read alike, the source gives them in different places. One block for each molecule: values may come before it.
Assays:
[1] = Pharmacokinetics of lutein and zeaxanthin with/without epi-lutein after intravenous administration; format: in vivo, wistar rats
Method: 14 days wash-out period before this study
Subject: 3 wistar rats each group
Feeding type: intravenous administration
Group A: 4 mg lutein/Kg body weight
Group B: (2 mg lutein+2 mg epi-lutein)/Kg body weight
Group C: 4 mg zeaxanthin/Kg body weight
Group D: (2 mg zeaxanthin 2 mg epi-lutein)/Kg body weight
Blood sampling: 15, 30, 60 minutes, 3 and 6 hours after feeding

[2] = Epi-lutein study: plasma levels after oral administration (gavage) for 7 consecutive days; format: in vivo, Rats, Sprague-Dawley; details: for Cmax: day 7, rat plasma; for AUC / AUC(0-t): rat, plasma; for AUC: read-out: AUC0-τ; for AUC(0-t): read-out: AUC0-12 h; for AUC0-12 h (dose corrected) / AUC0-τ (dose corrected) / Cmax (dose corrected): dose corrected to 0.1 mg Lutein/kg BW
Method: [table] Study Design: Oral administration (gavage) of Treatment I for 7 consecutive days in 5 rats followed by a 14 days wash-out period and oral administration (gavage) of Treatment II for 7 consecutive days Blood Sampling: On day 7 of treatment prior to treatment and 15 min, 1, 3, 6, 9, 12 and 24 hours after treatment. About 400 μL blood were be transferred to Vacutainer tubes containing EDTA. Whole blood samples were centrifuged, as soon as possible from the designated time of collection, at 1200 g for approximately 10 minutes. All plasma samples (at least 200 μL) were be stored deep frozen at ≦−30° C., until shipping on dry ice. [table] Plasma Analysis: Lutein, Epilutein, Zeaxanthin and Oxidized metabolites

[3] = Treatment II (mixture together with epi-lutein)

AUC(0-inf) ([1]; rat, 4 mg/kg, heading: AUC0-inf, wistar rats, intravenous, A 4 mg lutein/Kg, B 2 mg lutein+2 mg epi-lutein/Kg, C 4 mg zeaxanthin/Kg, D 2 mg zeaxanthin+2 mg epi-lutein/Kg, lutein (A,B) or zeaxanthin (C,D) in plasma): 21300 ng·h/mL
AUC(0-t) ([1]; rat, 4 mg/kg, heading: AUC0-t, wistar rats, intravenous, A 4 mg lutein/Kg, B 2 mg lutein+2 mg epi-lutein/Kg, C 4 mg zeaxanthin/Kg, D 2 mg zeaxanthin+2 mg epi-lutein/Kg, lutein (A,B) or zeaxanthin (C,D) in plasma): 11700 ng·h/mL
half-life ([1]; rat, 4 mg/kg, wistar rats, intravenous, A 4 mg lutein/Kg, B 2 mg lutein+2 mg epi-lutein/Kg, C 4 mg zeaxanthin/Kg, D 2 mg zeaxanthin+2 mg epi-lutein/Kg, lutein (A,B) or zeaxanthin (C,D) in plasma, read-out: T½): 5.08 h
plasma half life after treatment with epi-lutein ([1]; wistar rats, intravenous, with vs without epi-lutein): substantially prolonged
increase in the pharmacokinetic parameters of lutein, dose corrected ([2]; 0.1 mg lutein/kg BW mixed with approximately 0.1 mg epi-lutein/kg BW vs single compound, time interval 0-12 hours): about 100%
Cmax ([2]; Sprague-Dawley, 0.282 mg/kg BW, Treatment I (0.282 mg lutein/kg BW, oral gavage), read-out: Cmax): 941 ng/mL
AUC ([2]; Sprague-Dawley, 0.282 mg/kg BW, Treatment I (0.282 mg lutein/kg BW, oral gavage), day 7, τ 24 hours): 18100 ng·h/mL
AUC(0-t) ([2]; Sprague-Dawley, 0.282 mg/kg BW, Treatment I (0.282 mg lutein/kg BW, oral gavage), day 7): 9780 ng·h/mL
AUC ([2]; Sprague-Dawley, Treatment II (0.147 mg lutein + 0.135 mg epi-lutein/kg BW, oral gavage), day 7, τ 24 hours): 14300 ng·h/mL
AUC(0-t) ([2]; Sprague-Dawley, Treatment II (0.147 mg lutein + 0.135 mg epi-lutein/kg BW, oral gavage), day 7): 9340 ng·h/mL
Cmax ([2]; Sprague-Dawley, Treatment II (0.147 mg lutein + 0.135 mg epi-lutein/kg BW, oral gavage), read-out: Cmax): 939 ng/mL
AUC0-12 h (dose corrected) ([2]; Treatment I (pure compound)): 3261 ng × h × ml^−1/0.1 mg Lut/kg B
AUC0-τ (dose corrected) ([2]; Treatment I (pure compound)): 6050 ng × h × ml^−1/0.1 mg Lut/kg B
Cmax (dose corrected) ([2]; Treatment I (pure compound)): 314 [ng/ml]/0.1 mg Lut/kg BW
AUC0-12 h (dose corrected) [2, 3]: 6230 ng × h × ml^−1/0.1 mg Lut/kg B
AUC0-τ (dose corrected) [2, 3]: 9560 ng × h × ml^−1/0.1 mg Lut/kg B
Cmax (dose corrected) [2, 3]: 626 [ng/ml]/0.1 mg Lut/kg BW
Structure (SMILES): CC1=C[C@H](O)CC(C)(C)[C@H]1/C=C/C(C)=C/C=C/C(C)=C/C=C/C=C(C)/C=C/C=C(C)/C=C/C1=C(C)C[C@@H](O)CC1(C)C [Lutein, (3R,3′R,6′R)-beta, epsilon-carotene-3,3′-diol]

AUC0-12 h ([2]; Treatment II (0.147 mg lutein + 0.135 mg epi-lutein/kg BW, oral gavage), day 7): 3724 ng·h/mL
Cmax ([2]; Treatment II (0.147 mg lutein + 0.135 mg epi-lutein/kg BW, oral gavage)): 428 ng/mL
AUC0-τ ([2]; Treatment II (0.147 mg lutein + 0.135 mg epi-lutein/kg BW, oral gavage), day 7, τ 24 hours): 6286 ng·h/mL
Structure (SMILES): CC1=C[C@@H](O)CC(C)(C)[C@H]1/C=C/C(C)=C/C=C/C(C)=C/C=C/C=C(C)/C=C/C=C(C)/C=C/C1=C(C)C[C@@H](O)CC1(C)C [Epi-Lutein, (3R,3′S,6′R)-lutein]

T½ ([1]; rat, in vivo, iv): 5 h
plasma half life after treatment with epi-lutein ([1]; rat, in vivo, iv): substantially prolonged
Structure (SMILES): CC1=C(/C=C/C(C)=C/C=C/C(C)=C/C=C/C=C(C)/C=C/C=C(C)/C=C/C2=C(C)C[C@@H](O)CC2(C)C)C(C)(C)C[C@H](O)C1 [Zeaxanthin, (3R,3′R)-beta, beta carotene-3,3′-diol]
